Measurements reported in publication PMC11206525, “Structural Design, Anticancer Evaluation, and Molecular Docking of Newly Synthesized Ni(II) Complexes with ONS-Donor Dithiocarbazate Ligands” (Molecules, 2024).
Like-named read-outs stand apart in the source and are kept apart here. Each block holds one compound with its values, some of them ahead of it.

Tests used:
[1] = system: human breast cancer cell line MCF-7; assay: MTT cytotoxicity assay, breast cancer MCF-7 cells; format: cell-based; details: MCF-7, MTT
Description: (§1) The measurement was performed using the MTT assay in cultures treated with increasing concentrations.
(§2) The effect of the compounds applied to breast cancer MCF-7 cells and breast epithelial MCF-10A cells was evaluated by measuring 3-(4,5-dimethylthiazol-2-yl)-2,5-diphenyl tetrazolium bromide (MTT) (Invitrogen, Waltham, MA, USA). All compounds were diluted in dimethylsulfoxide (DMSO) with a final DMSO concentration of 0.01% (0.01 mL/100 mL × 100 = 0.01% means 0.01 mL of DMSO to 99.99 mL of water) in all groups and untreated controls. Cells were seeded in 96-well plates at a density of 5 × 10^3 cells per well and incubated with compounds diluted in serial concentrations ranging from 0.29 µM to 150 µM. After 24, 48, and 72 h at 37 °C and 5% CO2, 10 µL of MTT (5 mg/mL) was added to each well and incubated for 4 h at 37 °C. The supernatant was then removed, and 100 µL/well of DMSO was added to dissolve any deposited formazan. The optical density was measured at 570 nm using a microplate reader (DR-200B-NM_Kasuaki, Tokyo, Japan).

[2] = system: non-malignant breast epithelial cell line MCF-10A; assay: MTT cytotoxicity assay, non-malignant MCF-10A cells; format: cell-based, human
Description: as §1, §2

[3] = system: the cells tested; design: method as in doi:10.1016/j.ica.2017.03.027; details: related work; cited from earlier work
[4] = read-out: IC50 (Inhibitory Concentration 50%) ± SD at 24 h, 24 h
[5] = read-out: IC50 (Inhibitory Concentration 50%) ± SD at 48 h, 48 h

- melting point: 116 °C
SMILES: C=CCSC(=S)N/N=C(\C)c1ccccc1O [H2L^1, S-Allyl-2-(2-hydroxyphenyl-ethylidene)dithiocarbazato]
- IC50 ([1]; Homo sapiens, MCF7, read-out: IC50 (Inhibitory Concentration 50%) ± SD at 24 h, 24 h): 88.85 ± 0.097 µM
- IC50 ([1]; Homo sapiens, MCF7, read-out: IC50 (Inhibitory Concentration 50%) ± SD at 48 h, 48 h): 87.73 ± 0.042 µM
- IC50 ([1]; Homo sapiens, MCF7, read-out: IC50 (Inhibitory Concentration 50%) ± SD at 72 h, 72 h): 28.49 ± 0.023 µM
- IC50 ([2]; Homo sapiens, read-out: IC50 (Inhibitory Concentration 50%) ± SD at 24 h, 24 h): 65.44 ± 0.034 µM
- IC50 ([2]; Homo sapiens, read-out: IC50 (Inhibitory Concentration 50%) ± SD at 48 h, 48 h): 62.86 ± 0.013 µM
- IC50 ([2]; Homo sapiens, read-out: IC50 (Inhibitory Concentration 50%) ± SD at 72 h, 72 h): 62.86 ± 0.025 µM

SMILES: O.O.O.O.O.O.[Cl][Ni][Cl] [NiCl2⋅6H2O]
- effect on cell proliferation or cell viability [3]: no substantial effect

- melting point: 145 °C
SMILES: C/C(=N\NC(=S)SCc1ccccc1)c1ccccc1O [H2L^2, S-Benzyl-2-(2-hydroxyphenyl-ethylidene)dithiocarbazato]

SMILES: C=CCSC1=NN=C(C)c2ccccc2[O][Ni]([P](c2ccccc2)(c2ccccc2)c2ccccc2)[S]1 [(1), [Ni(L^1)PPh3]]
- IC50 [1, 4]: 12.82 ± 0.029 µM
- IC50 [1, 5]: 22.71 ± 0.016 µM
- IC50 ([1]; read-out: IC50 (Inhibitory Concentration 50%) ± SD at 72 h, 72 h): 18.07 ± 0.017 µM
- IC50 [2, 4]: 25.47 ± 0.031 µM
- IC50 [2, 5]: 28.43 ± 0.021 µM
